The record followed here is patent publication US9409905B2, “Antibacterial compounds and methods for use” (PTC THERAPEUTICS, INC., priority 2011, dated 2016).

Converted amounts (≈) assume the structure as drawn.

In one experiment the test system is E. coli 25922. Put plainly: Antibacterial activity, microbroth dilution MIC (Table 1). In kind it is cell-based, Escherichia coli. The following applies: Escherichia coli; microbroth dilution; control Gram-negative E. coli 25922 strain; read-out: MIC, 25922. Summed up: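 MIC (μg/mL) is taken as the lowest concentration with no macroscopically visible growth. Strains tested by microbroth dilution: Gram-positive S. aureus 29213, control Gram-negative E. coli 25922, and super-sensitive E. coli BAS849.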
In general terms: Dilution methods test growth across graded concentrations, often in twofold steps.

Experiment [1] concerns Klebsiella pneumoniae (K. pneumoniae) 35657. Description: Antibacterial activity, MIC (Table 4). In kind it is cell-based. The following applies: K. pneumoniae 35657, read-out: MIC, 35657. An excerpt:
(§1) The antibacterial activity from a microbroth dilution method may be presented as the minimum inhibitory concentration (MIC in μg/mL). The MIC value is the lowest concentration of drug which prevents macroscopically visible growth under test conditions.
(§2) Antibacterial activity of test compounds against the Gram-negative Acinetobacter baumannii (A. baumannii) BAA747 and Klebsiella pneumoniae (K. pneumoniae) 35657 bacterium and the resistant A. baumannii MXX2240 and K. pneumoniae MXX1232 strains are shown in Table 4. The MMX strains are multi-drug resistant clinical isolates.

The test system of experiment [2] is Acinetobacter baumannii (A. baumannii) BAA747. Put plainly: Antibacterial activity, MIC (Table 4). In kind it is cell-based. The following applies: A. baumannii BAA747, read-out: MIC, BAA747.
Text: as §1, §2

The subject of experiment [3] is Pseudomonas aeruginosa (P. aeruginosa) 27853. Put plainly: Antibacterial activity, MIC (Table 5). It is filed as cell-based. The following applies: P. aeruginosa 27853, read-out: MIC, 27853.
Text: as §1
Antibacterial activity of test compounds against the Gram-negative bacterium Pseudomonas aeruginosa (P. aeruginosa) 27853 is shown in Table 5.

For the next experiment, the system named is E. coli LZ3111. Put plainly: Antibacterial activity, MIC, quinolone resistant strain (Table 2). In kind it is cell-based. As to conditions: Escherichia coli, LZ3111, read-out: MIC LZ3111. Summed up:
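MIC values (μg/mL) came from a microbroth dilution assay, scored as the lowest drug concentration at which no growth was visible by eye.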

The subject of experiment [4] is Escherichia coli (E. coli) BAS849. Put plainly: Antibacterial activity, microbroth dilution MIC (Table 1). It is filed as cell-based. The following applies: microbroth dilution, super sensitive Gram-negative E. coli BAS849, read-out: MIC, BAS849. In short, it runs like this: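 Microbroth dilution was used. MIC, in μg/mL, is the lowest drug concentration preventing macroscopically visible growth under the test conditions.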

Experiment [5] relates to Staphylococcus aureus (S. aureus) 29213. The experiment is described as above. It is filed as cell-based. As to conditions: microbroth dilution, Gram-positive S. aureus 29213, read-out: MIC, 29213. In short, it runs like this:
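Broth microdilution; endpoint = no macroscopic growth; value = lowest inhibiting concn, μg/mL.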

Regarding `CCc1cc(C(=O)O)c(=O)[nH]c1-c1ccc2c(c1)cc(CN1CCC(O)C1)n2C` (centres unmarked) [Cpd 125, 5-ethyl-6-(2-((3-hydroxypyrrolidin-1-yl)methyl)-1-methyl-1H-indol-5-yl)-2-oxo-1,2-dihydropyridine-3-carboxylic acid], the MIC (as a rule, the least concentration at which growth counts as inhibited) with E. coli 25922 is 1 to 3.5 µg/mL (≈ 2.53 to 8.85 µM); in experiment [1] it was under 1 µg/mL; in experiment [2], 12.5 to 150 µg/mL (≈ 31.6 to 379 µM); in experiment [3], 12.5 to 150 µg/mL (≈ 31.6 to 379 µM); in the experiment with E. coli LZ3111, 12.5 to 150 µg/mL (≈ 31.6 to 379 µM); in experiment [4] it was under 1 µg/mL. For the same compound, in experiment [5], the MIC lay within 12.5 to 150 µg/mL (≈ 31.6 to 379 µM).
Turning to `CCc1cc(C(=O)O)c(=O)[nH]c1-c1ccc2c(c1)cc(CN1CCCC1c1ccccc1)n2C` (centres unmarked) [Cpd 131, 5-ethyl-6-(1-methyl-2-((2-phenylpyrrolidin-1-yl)methyl)-1H-indol-5-yl)-2-oxo-1,2-dihydropyridine-3-carboxylic acid], the MIC in the experiment on E. coli 25922 was 1 to 3.5 µg/mL (≈ 2.2 to 7.68 µM); in experiment [1], 12.5 to 150 µg/mL (≈ 27.4 to 329 µM); in experiment [2], 3.5 to 12.5 µg/mL (≈ 7.68 to 27.4 µM); in experiment [3], 12.5 to 150 µg/mL (≈ 27.4 to 329 µM); in the experiment on E. coli LZ3111 it was 12.5 to 150 µg/mL (≈ 27.4 to 329 µM); in experiment [4], under 1 µg/mL. Also, the MIC in experiment [5] lay within 1 to 3.5 µg/mL (≈ 2.2 to 7.68 µM).
On to `CCc1cc(C(=O)O)c(=O)[nH]c1-c1ccc2c(c1)cc1n2CCC1N1CCOCC1` (centres unmarked) [Cpd 155, 5-ethyl-6-(1-morpholino-2,3-dihydro-1H-pyrrolo[1,2-a]indol-7-yl)-2-oxo-1,2-dihydropyridine-3-carboxylic acid], for which the MIC in the experiment on E. coli 25922 is 3.5 to 12.5 µg/mL (≈ 8.59 to 30.7 µM); in experiment [1], 3.5 to 12.5 µg/mL (≈ 8.59 to 30.7 µM); in experiment [2], 12.5 to 150 µg/mL (≈ 30.7 to 368 µM); in experiment [3], 12.5 to 150 µg/mL (≈ 30.7 to 368 µM); in the experiment with E. coli LZ3111, 12.5 to 150 µg/mL (≈ 30.7 to 368 µM); in experiment [4], under 1 µg/mL. In addition, the MIC in experiment [5] lay within 12.5 to 150 µg/mL (≈ 30.7 to 368 µM).
Consider `CCc1cc(C(=O)O)c(=O)[nH]c1-c1ccc2c(c1)cc(CCN1CCOCC1)n2C` [Cpd 162, 5-ethyl-6-(1-methyl-2-(2-morpholinoethyl)-1H-indol-5-yl)-2-oxo-1,2-dihydropyridine-3-carboxylic acid], for which the minimal inhibitory concentration (MIC) was 1 to 3.5 µg/mL (≈ 2.44 to 8.55 µM) with E. coli 25922; 1 to 3.5 µg/mL (≈ 2.44 to 8.55 µM) in experiment [1]; 3.5 to 12.5 µg/mL (≈ 8.55 to 30.5 µM) in experiment [2]; 12.5 to 150 µg/mL (≈ 30.5 to 366 µM) in experiment [3]; 12.5 to 150 µg/mL (≈ 30.5 to 366 µM) in the experiment on E. coli LZ3111; under 1 µg/mL in experiment [4]. The MIC in experiment [5] is 12.5 to 150 µg/mL (≈ 30.5 to 366 µM).
For the compound `CCc1c(-c2ccc3c(c2)cc(C2CCNC2)n3C)[nH]c(=O)c(C(=O)O)c1O` (centres unmarked) [Cpd 306, 5-ethyl-4-hydroxy-6-(1-methyl-2-(pyrrolidin-3-yl)-1H-indol-5-yl)-2-oxo-1,2-dihydropyridine-3-carboxylic acid], the minimum inhibitory concentration (MIC) in the experiment on E. coli 25922 lay in the range of 3.5 to 12.5 µg/mL (≈ 9.18 to 32.8 µM); in experiment [1], 3.5 to 12.5 µg/mL (≈ 9.18 to 32.8 µM); in experiment [2], 12.5 to 150 µg/mL (≈ 32.8 to 393 µM); in experiment [3] it was 12.5 to 150 µg/mL (≈ 32.8 to 393 µM); with E. coli LZ3111, 3.5 to 12.5 µg/mL (≈ 9.18 to 32.8 µM); in experiment [4] it was 1 to 3.5 µg/mL (≈ 2.62 to 9.18 µM). Moreover, the MIC in experiment [5] fell in the range of 12.5 to 150 µg/mL (≈ 32.8 to 393 µM).
`CCc1c(-c2ccc3c(c2)c(C#N)c(N2CCCC2)n3C)[nH]c(=O)c(C(=O)O)c1O` [Cpd 360, 6-(3-cyano-1-methyl-2-(pyrrolidin-1-yl)-1H-indol-5-yl)-5-ethyl-4-hydroxy-2-oxo-1,2-dihydropyridine-3-carboxylic acid]: the MIC in the experiment with E. coli 25922 is 12.5 to 150 µg/mL (≈ 30.8 to 369 µM); in the experiment on E. coli LZ3111, 12.5 to 150 µg/mL (≈ 30.8 to 369 µM); in experiment [4], 3.5 to 12.5 µg/mL (≈ 8.61 to 30.8 µM); in experiment [5], 1 to 3.5 µg/mL (≈ 2.46 to 8.61 µM).
For the compound `CCc1c(-c2ccc3c(c2)c(C#N)c(N(C)C)n3C)[nH]c(=O)c(C(=O)O)c1O` [Cpd 361, 6-(3-cyano-2-(dimethylamino)-1-methyl-1H-indol-5-yl)-5-ethyl-4-hydroxy-2-oxo-1,2-dihydropyridine-3-carboxylic acid], the MIC in the experiment with E. coli 25922 was 12.5 to 150 µg/mL (≈ 32.9 to 394 µM); in the experiment with E. coli LZ3111, 12.5 to 150 µg/mL (≈ 32.9 to 394 µM); in experiment [4], 1 to 3.5 µg/mL (≈ 2.63 to 9.2 µM); in experiment [5] it was 3.5 to 12.5 µg/mL (≈ 9.2 to 32.9 µM).
For `CCc1c(-c2ccc3c(c2)c(Cl)cn3C)[nH]c(=O)c(C(=O)O)c1O` [Cpd 363, 6-(3-chloro-1-methyl-1H-indol-5-yl)-5-ethyl-4-hydroxy-2-oxo-1,2-dihydropyridine-3-carboxylic acid], the MIC was 12.5 to 150 µg/mL (≈ 36 to 433 µM) with E. coli 25922, 1 to 3.5 µg/mL (≈ 2.88 to 10.1 µM) in the experiment with E. coli LZ3111, under 1 µg/mL in experiment [4] and 1 to 3.5 µg/mL (≈ 2.88 to 10.1 µM) in experiment [5].
